Assay results reported in patent US20260263497A1, “METHOD OF TREATING SCHIZOPHRENIA AND COMPOSITION FOR USE THEREIN” (Academia Sinica, priority 2022, published 2026).

Experiments:
Format in all cases: in vivo, mice (C57BL/6)
[1] = system: METH-induced hyperlocomotion in METH-naïve wild-type mice; experiment: METH-induced hyperlocomotor activity (METH-induced behavioral sensitization, open field); conditions: for effect on METH-induced hyperlocomotion activity, total travelled distance: i.p. co-injection 0.3, 1, 3 mg/kg with METH 2 mg/kg, 60 minutes, FIG. 2
Description: (§1) Animals: Male mice (C57BL/6; 2-3 months) were purchased from and maintained in the animal facility of National Taiwan University (Taipei, Taiwan) under standard condition with a 12-hr light/12-hr dark cycle. All animal experimental procedures were performed in accordance with the guidelines established by the Institutional Animal Care and Use Committee (IACUC) of the National Taiwan University and Institute of Biomedical Sciences (IBMS) at Academia Sinica (Taipei, Taiwan).
(§2) The locomotor activity: The locomotor activity was monitored and recorded using SMART 3.0 video tracking software (Panlab Harvard Apparatus, Barcelona, Spain) for 1 hour following the manufacture's protocol.
Methamphetamine (METH) is a dopamine enhancer that elevates synaptic dopamine in the brain and is frequently used to induce schizophrenia-like behaviors in mice.^6 Thus, METH-induced psychosis mice was used to evaluate the in vivo efficacy of JMF3464.
Male METH-naïve wild-type (WT) mice (3-6 months old) received intraperitoneal co-injections of JMF3464 (0.3, 1, or 3 mg/kg) and METH (2 mg/kg) immediately after establishing a 20-minute baseline for locomotor activity. The locomotor activity was recorded for 60 minutes after injection. A saline+vehicle group and a METH+vehicle group are used as control groups. In addition, under the same experimental conditions as JMF3464, the compound CGS21680 (A2A receptor agonist) with potential for treating schizophrenia was used as a comparison. The resulted data was expressed and analyzed as one-way ANOVA of total travelled distance (see FIG. 2) and two-way ANOVA of distance by 5-minute time bin (see FIGS. 3A and 3B) and.
as §1, with “IACUC” for “Institutional Animal Care and Use Committee (IACUC)”, “IBMS” for “Institute of Biomedical Sciences (IBMS)”
Male METH-naïve wild-type (WT) mice (3-6 months old) received intraperitoneal co-injections of JMF1907 (1 mg/kg) and METH (2 mg/kg) immediately after establishing a 20-minute baseline for locomotor activity. The locomotor activity was recorded for 60 minutes after injection. In this study, a saline+vehicle (5% DMSO) group and a METH+vehicle (5% DMSO) group are used as control groups. In addition, the compound JMF3464 described above, and the compound S-(4-Nitrobenzyl)-6-thioinosine (NBTI), known as an inhibitor of equilibrative nucleoside transporter 1 (ENTi) transporter, are used as comparative examples with the same experimental conditions as JMF1907. The resulted data was expressed and analyzed as one-way ANOVA of total travelled distance (see FIG. 5) and two-way ANOVA of distance by 5-minute time bin (see FIG. 6).

METH-induced CPP in mice = experiment: METH-induced conditioned place preference (CPP)
Description: as §1
The METH-induced conditioned place preference (CPP) task is further performed to examine the therapeutic effect of JMF3464 on METH-induced addiction.
The METH-induced CPP procedure is shown as follows. The conditioned place preference (CPP) paradigm is a standard preclinical behavioral model used to study the rewarding and aversive effects of drugs. The paradigm usually uses a two-compartment apparatus with each compartment displaying distinct contextual characteristics (e.g., wall colors/patterns and floor texture). The CPP model consisted of three phases: pre-conditioning (baseline), conditioning, and post-conditioning (i.e., CPP test). […] Lastly, one day after the conditioning sessions, mice underwent a CPP test where they were again given free access to all compartments for 15 minutes and the time spent in the METH-paired side was measured, which provided a measure of CPP expression.

[2] = system: locomotor activity of drug-naïve WT mice; experiment: Effect of JMF3464 alone on locomotor activity; conditions: single i.p. injection 0.3, 0.5, 1, 3 mg/kg
Description: as §1, §2
Male drug-naïve WT mice (3-6 months old) received a single dose JMF3464 injection (0.3, 0.5, 1, and 3 mg/kg, respectively) via intraperitoneal injection and the locomotor activity was recorded immediately after injection. A vehicle group is used as control group. The data were expressed and analyzed as one-way ANOVA of total travelled distance for 60 minutes (see FIG. 1A) and two-way ANOVA of distance by 5-minute time bin (see FIG. 1B).

Compound: CCNC(=O)[C@H]1O[C@@H](n2cnc3c(N)nc(NCCc4ccc(CCC(=O)O)cc4)nc32)[C@H](O)[C@@H]1O [CGS21680, reference compound]
- effect on METH-induced hyperlocomotion activity, total travelled distance [1]: dose-dependently suppressed

Compound: OC[C@H]1O[C@@H](n2cnc3c(NCCc4c[nH]c5ccccc45)ncnc32)C(O)C1O (some centres unmarked) [JMF1907]
- improvement of METH-induced hyperactive behavior, five-minute intervals ([1]; 1 mg/kg i.p. co-injection with METH 2 mg/kg, open field 60 minutes, FIG. 6): comparable to the control group
- effect on METH-induced hyperactive behavior, overall locomotion ([1]; 1 mg/kg i.p. co-injection with METH 2 mg/kg, open field 60 minutes, vehicle 5% DMSO, compared to JMF3464 and NBTI, FIG. 5): significantly improves

Compound: OC[C@H]1O[C@@H](n2cnc3c(NCc4ccc(Br)s4)ncnc32)[C@H](O)[C@@H]1O [JMF3464, N6-[(5-bromothien-2-yl)methyl]adenosine]
- effect on METH-induced locomotion activity, 5-minute time bins ([1]; 3 mg/kg i.p. co-injection with METH 2 mg/kg, vs METH+vehicle, FIGS. 3A, 3B): significantly lowered
- effect on METH-induced hyperlocomotion activity, total travelled distance [1]: dose-dependently suppressed
- effect on METH-induced behavioral sensitization after repeated use ([1]; repeated use, no further conditions given): no effect
- inhibitory effect on METH-induced CPP (METH-induced CPP in mice; 1 mg/kg i.p. 10 minutes before each METH conditioning session, FIG. 4A): neither 1 mg/kg nor 3 mg/kg of JMF3464 exerted inhibitory effect
- inhibitory effect on METH-induced CPP (METH-induced CPP in mice; 3 mg/kg i.p. 10 minutes before each METH conditioning session, FIG. 4B): neither 1 mg/kg nor 3 mg/kg of JMF3464 exerted inhibitory effect
- effect on locomotor activity ([2]; 60 minutes): dose-dependent effect
- reduction of total locomotor activity ([2]; total travelled distance 60 minutes, vs vehicle): ~ 20%

Compound: CN[C@@H](C)Cc1ccccc1 [METH, Methamphetamine]
- hyperlocomotion induced by METH ([1]; METH 2 mg/kg i.p. + vehicle vs saline+vehicle, total travelled distance 60 minutes): approximately 200%
